Results as given in patent US12331040B2 (Karyopharm Therapeutics Inc., priority 2013, dated 2025).
pIC50: −log10 of the molar value. Where two headings read alike, the source gives them in different places.

Columns and labels:
Assay in all cases: MTT cell proliferation assay
Type in all cases: cell-based
[1] = system: 3T3 cells; details: Mus musculus, NIH3T3, approximately 64-72 hours incubation
Method in brief: (§1)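 5,000-10,000 cells/well, overnight attach; 8 conc., 1 nM–30 μM; MTT ~4 h; formazan solubilized, OD 490 nm; % inhibition = (1−(ODo/OD))×100 vs neg. control; mostly duplicate, mean±SE.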

[2] = system: Z138 cells; details: Homo sapiens, Z-138, Z138 cells, approximately 64-72 hours incubation
Method in brief: as §1

[3] = system: MS751 cells; details: Homo sapiens, MS751, MS751 cells, approximately 64-72 hours incubation
Method in brief: as §1

[4] = read-out: MTT Assay IC50, Z-138
[5] = read-out: MTT Assay IC50, MS-751
[6] = read-out: MTT Assay IC50 MS-751

Nc1ccc(/C=C/C(=O)NCc2cc3cc(-c4ccc(OC5CCC(F)(F)CC5)cc4)cc(-c4ccc(F)cc4)c3o2)cn1 [Compound 763, (E)-3-(6-aminopyridin-3-yl)-N-((5-(4-((4,4-difluorocyclohexyl)oxy)phenyl)-7-(4-fluorophenyl)benzofuran-2-yl)methyl)acrylamide]
pIC50 ([1]; read-out: MTT Assay IC50, 3T3): < 5.00
pIC50 [2, 4]: 5.30 to 7.00
pIC50 [3, 5]: 5.30 to 7.00

Nc1ccc(/C=C/C(=O)NCc2cc3cc(-c4ccc(C(=O)N5CCC(F)(F)CC5)cn4)cc(-c4nnco4)c3o2)cn1 [Compound 662, (E)-3-(6-aminopyridin-3-yl)-N-((5-(5-(4,4-difluoropiperidine-1-carbonyl)pyridin-2-yl)-7-(1,3,4-oxadiazol-2-yl)benzofuran-2-yl)methyl)acrylamide]
pIC50 ([1]; read-out: MTT Assay IC50, 3T3): < 5.00
pIC50 [2, 4]: 5.30 to 7.00
pIC50 [3, 5]: 5.30 to 7.00

Nc1ccc(/C=C/C(=O)NCc2cc3cc(-c4ccc(S(=O)(=O)N5CCOCC5)cc4)cc(C(F)(F)F)c3o2)cn1 [Compound 531, (E)-3-(6-aminopyridin-3-yl)-N-((5-(4-(morpholinosulfonyl)phenyl)-7-(trifluoromethyl)benzofuran-2-yl)methyl)acrylamide]
pIC50 ([1]; read-out: MTT Assay IC50 3T3): 5.30 to 7.00
pIC50 ([2]; read-out: MTT Assay IC50 Z-138): 5.30 to 7.00
pIC50 [3, 6]: > 7.00

Nc1ccc(/C=C/C(=O)NCc2cc3cc(-c4ccc(Oc5ccc(F)nc5)cc4)cc(-c4ccc(F)cc4)c3o2)cn1 [Compound 767, (E)-3-(6-aminopyridin-3-yl)-N-((7-(4-fluorophenyl)-5-(4-((6-fluoropyridin-3-yl)oxy)phenyl)benzofuran-2-yl)methyl)acrylamide]
pIC50 ([1]; read-out: MTT Assay IC50, 3T3): < 5.00
pIC50 [2, 4]: > 7.00
pIC50 [3, 5]: 5.30 to 7.00

Nc1ccc(/C=C/C(=O)NCc2cc3cc(-c4ccc(C(=O)N5CCC(F)(F)CC5)cc4)cc(-c4cc5ccccc5o4)c3o2)cn1 [Compound 699]
pIC50 ([1]; read-out: MTT Assay IC50, 3T3): 5.00 to 5.30
pIC50 [2, 4]: > 7.00
pIC50 [3, 5]: > 7.00

Nc1ccc(/C=C/C(=O)NCc2cc3cc(-c4ccc(C(=O)N5CCCNCC5)cc4)cc(C(F)(F)F)c3o2)cn1 [Compound 573, (E)-N-((5-(4-(1,4-diazepane-1-carbonyl)phenyl)-7-(trifluoromethyl)benzofuran-2-yl)methyl)-3-(6-aminopyridin-3-yl)acrylamide]
pIC50 ([1]; read-out: MTT Assay IC50 3T3): < 5.00
pIC50 ([2]; read-out: MTT Assay IC50 Z-138): > 7.00
pIC50 [3, 6]: > 7.00

Nc1ccc(/C=C/C(=O)NCc2cc3cc(-c4ccc(C(=O)N5CCC(F)(F)CC5)cn4)cc(C4CC4)c3o2)cn1 [Compound 659, (E)-3-(6-aminopyridin-3-yl)-N-((7-cyclopropyl-5-(5-(4,4-difluoropiperidine-1-carbonyl)pyridin-2-yl)benzofuran-2-yl)methyl)acrylamide]
pIC50 ([1]; read-out: MTT Assay IC50, 3T3): < 5.00
pIC50 [2, 4]: 5.30 to 7.00
pIC50 [3, 5]: 5.30 to 7.00

Nc1ccc(/C=C/C(=O)NCc2cc3cc(-c4ccc(C(=O)N5CCC(F)(F)CC5)cn4)cc(-c4ccc(F)cc4F)c3o2)cn1 [Compound 710, (E)-3-(6-aminopyridin-3-yl)-N-((7-(2,4-difluorophenyl)-5-(5-(4,4-difluoropiperidine-1-carbonyl)pyridin-2-yl)benzofuran-2-yl)methyl)acrylamide]
pIC50 ([1]; read-out: MTT Assay IC50, 3T3): 5.30 to 7.00
pIC50 [2, 4]: > 7.00
pIC50 [3, 5]: > 7.00

Nc1ccc(/C=C/C(=O)NCc2cc3cc(-c4ccc(C(=O)N5CC6(COC6)C5)cn4)cc(C(F)(F)F)c3o2)cn1 [Compound 625, (E)-N-((5-(5-(2-oxa-6-azaspiro[3.3]heptane-6-carbonyl)pyridin-2-yl)-7-(trifluoromethyl)benzofuran-2-yl)methyl)-3-(6-aminopyridin-3-yl)acrylamide]
pIC50 ([1]; read-out: MTT Assay IC50 3T3): 5.30 to 7.00
pIC50 ([2]; read-out: MTT Assay IC50 Z-138): > 7.00
pIC50 [3, 6]: > 7.00

O=C(/C=C/c1cccnc1)NCc1cc2cc(-c3ccc(C(=O)N4CCC(F)(F)CC4)cc3)cc(-c3ccc(F)cc3)c2o1 [Compound 729]
pIC50 ([1]; read-out: MTT Assay IC50, 3T3): > 7.00
pIC50 [2, 4]: > 7.00
pIC50 [3, 5]: > 7.00

O=C(/C=C/c1ccc(C(F)(F)F)nc1)NCc1cc2cc(-c3ccc(C(=O)N4CCOCC4)cc3)cc(Cl)c2o1 [Compound 536, (E)-N-((7-Chloro-5-(4-(morpholine-4-carbonyl)phenyl)benzofuran-2-yl)methyl)-3-(6-(trifluoromethyl)pyridin-3-yl)acrylamide]
pIC50 ([1]; read-out: MTT Assay IC50 3T3): < 5.00
pIC50 ([2]; read-out: MTT Assay IC50 Z-138): 5.00 to 5.30
pIC50 [3, 6]: < 5.00

Nc1ccc(/C=C/C(=O)NCc2cc3cc(-c4ccc(C(=O)N5CCC(F)(F)CC5)cc4)cc(-c4ccc(C(F)(F)F)cc4)c3o2)cn1 [Compound 733, (E)-3-(6-aminopyridin-3-yl)-N-((5-(4-(4,4-difluoropiperidine-1-carbonyl)phenyl)-7-(4-(trifluoromethyl)phenyl)benzofuran-2-yl)methyl)acrylamide]
pIC50 ([1]; read-out: MTT Assay IC50, 3T3): < 5.00
pIC50 [2, 4]: 5.30 to 7.00
pIC50 [3, 5]: 5.30 to 7.00

Nc1ccc(/C=C/C(=O)NCc2cc3cc(-c4ccc(C(=O)N5CCC(F)(F)CC5)cc4F)cc(-c4cccc(Cl)c4)c3o2)cn1 [Compound 756, (E)-3-(6-aminopyridin-3-yl)-N-((7-(3-chlorophenyl)-5-(4-(4,4-difluoropiperidine-1-carbonyl)-2-fluorophenyl)benzofuran-2-yl)methyl)acrylamide]
pIC50 ([1]; read-out: MTT Assay IC50, 3T3): < 5.00
pIC50 [2, 4]: > 7.00
pIC50 [3, 5]: > 7.00

Nc1ccc(/C=C/C(=O)NCc2cc3cc(-c4ccc(C(=O)N5CCC(F)(F)CC5)cc4)cc(-c4ccc(F)c(Cl)c4)c3o2)cn1 [Compound 711, (E)-3-(6-aminopyridin-3-yl)-N-((7-(3-chloro-4-fluorophenyl)-5-(4-(4,4-difluoropiperidine-1-carbonyl)phenyl)benzofuran-2-yl)methyl)acrylamide]
pIC50 ([1]; read-out: MTT Assay IC50, 3T3): 5.30 to 7.00
pIC50 [2, 4]: > 7.00
pIC50 [3, 5]: > 7.00

CC(c1ccc(-c2cc(-c3ccc(F)cc3)c3oc(CNC(=O)/C=C/c4ccc(N)nc4)cc3c2)cc1)N1CCC(F)(F)CC1 (stereo not drawn) [Compound 760, (E)-3-(6-aminopyridin-3-yl)-N-((5-(4-(1-(4,4-difluoropiperidin-1-yl)ethyl)phenyl)-7-(4-fluorophenyl)benzofuran-2-yl)methyl)acrylamide]
pIC50 ([1]; read-out: MTT Assay IC50, 3T3): < 5.00
pIC50 [2, 4]: 5.30 to 7.00
pIC50 [3, 5]: 5.30 to 7.00

CC1(C)CN(C(=O)c2ccc(-c3cc(C(F)(F)F)c4oc(CNC(=O)/C=C/c5ccc(N)nc5)cc4c3)cc2)CCO1 [Compound 530, (E)-3-(6-aminopyridin-3-yl)-N-((5-(4-(2,2-dimethylmorpholine-4-carbonyl)phenyl)-7-(trifluoromethyl)benzofuran-2-yl)methyl)acrylamide]
pIC50 ([1]; read-out: MTT Assay IC50 3T3): < 5.00
pIC50 ([2]; read-out: MTT Assay IC50 Z-138): 5.30 to 7.00
pIC50 [3, 6]: 5.30 to 7.00

CC1(F)CCN(C(=O)c2ccc(-c3cc(C(F)(F)F)c4oc(CNC(=O)/C=C/c5ccc(N)nc5)cc4c3)nc2)C1 (stereo not drawn) [Compound 617, (E)-3-(6-aminopyridin-3-yl)-N-((5-(5-(3-fluoro-3-methylpyrrolidine-1-carbonyl)pyridin-2-yl)-7-(trifluoromethyl)benzofuran-2-yl)methyl)acrylamide]
pIC50 ([1]; read-out: MTT Assay IC50 3T3): < 5.00
pIC50 ([2]; read-out: MTT Assay IC50 Z-138): > 7.00
pIC50 [3, 6]: 5.30 to 7.00

Nc1ccc(/C=C/C(=O)NCc2cc3cc(-c4ccc(C(=O)N5CCC(F)(F)CC5)cc4)cc(Cl)c3o2)cn1 [Compound 596, (E)-3-(6-aminopyridin-3-yl)-N-((7-chloro-5-(4-(4,4-difluoropiperidine-1-carbonyl)phenyl)benzofuran-2-yl)methyl)acrylamide]
pIC50 ([1]; read-out: MTT Assay IC50 3T3): < 5.00
pIC50 ([2]; read-out: MTT Assay IC50 Z-138): 5.30 to 7.00
pIC50 [3, 6]: 5.30 to 7.00

Nc1ccc(/C=C/C(=S)NCc2cc3cc(-c4ccc(C(=S)N5CCC(F)(F)CC5)cn4)cc(C(F)(F)F)c3o2)cn1 [Compound 678, (E)-3-(6-aminopyridin-3-yl)-N-((5-(5-(4,4-difluoropiperidine-1-carbonothioyl)pyridin-2-yl)-7-(trifluoromethyl)benzofuran-2-yl)methyl)prop-2-enethioamide]
pIC50 ([1]; read-out: MTT Assay IC50, 3T3): < 5.00
pIC50 [2, 4]: 5.30 to 7.00
pIC50 [3, 5]: 5.30 to 7.00

Nc1ccc(/C=C/C(=O)NCc2cc3cc(-c4ccc(C(=O)N5CCC(F)(F)CC5)cc4F)cc(-c4ccc(F)c(Cl)c4)c3o2)cn1 [Compound 757, (E)-3-(6-aminopyridin-3-yl)-N-((7-(3-chloro-4-fluorophenyl)-5-(4-(4,4-difluoropiperidine-1-carbonyl)-2-fluorophenyl)benzofuran-2-yl)methyl)acrylamide]
pIC50 ([1]; read-out: MTT Assay IC50, 3T3): < 5.00
pIC50 [2, 4]: > 7.00
pIC50 [3, 5]: > 7.00

O=C(/C=C/c1cccnc1)NCc1cc2cc(-c3ccc(C(=O)N4CCC(F)(F)CC4)cn3)cc(C(F)(F)F)c2o1 [Compound 671, (E)-N-((5-(5-(4,4-difluoropiperidine-1-carbonyl)pyridin-2-yl)-7-(trifluoromethyl)benzofuran-2-yl)methyl)-3-(pyridin-3-yl)acrylamide]
pIC50 ([1]; read-out: MTT Assay IC50, 3T3): 5.30 to 7.00
pIC50 [2, 4]: 5.30 to 7.00
pIC50 [3, 5]: 5.30 to 7.00

Nc1ccc(/C=C/C(=O)NCc2cc3cc(-c4ccc(C(=O)N5CCCOCC5)cc4)cc(C(F)(F)F)c3o2)cn1 [Compound 574, (E)-N-((5-(4-(1,4-oxazepane-4-carbonyl)phenyl)-7-(trifluoromethyl)benzofuran-2-yl)methyl)-3-(6-aminopyridin-3-yl)acrylamide]
pIC50 ([1]; read-out: MTT Assay IC50 3T3): < 5.00
pIC50 ([2]; read-out: MTT Assay IC50 Z-138): 5.30 to 7.00
pIC50 [3, 6]: 5.30 to 7.00

Nc1ccc(/C=C/C(=O)NCc2cc3c(-c4ccc(C(=O)N5CCC(F)(F)CC5)cn4)cc(C(F)(F)F)cc3o2)cn1 [Compound 761, (E)-3-(6-aminopyridin-3-yl)-N-((4-(5-(4,4-difluoropiperidine-1-carbonyl)pyridin-2-yl)-6-(trifluoromethyl)benzofuran-2-yl)methyl)acrylamide]
pIC50 ([1]; read-out: MTT Assay IC50, 3T3): < 5.00
pIC50 [2, 4]: < 5.00
pIC50 [3, 5]: < 5.00
